#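 Results reflect a 48-hour exposure of cells in 96-well plates to compound at five concentrations. At the GI50, growth is halved.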 Activity calls are given as the source filed them. Cut-off read from the data, not from the text of the source: active = GI50 up to about 1.1 µM and inactive = higher.
# What was measured:
# Test in all cases: NCI anticancer screen, dose series, 48 h
# HL-60 = system: HL-60
# SF-539 = system: SF-539
# HCC 2998 = system: HCC 2998
# SK-OV-3 = system: SK-OV-3
# SNB-75 = system: SNB-75
# KM12 = system: KM12
# CAKI-1 = system: CAKI-1
# Malme-3M = system: Malme-3M
# HCT-15 = system: HCT-15
# HCT-116 = system: HCT-116
# NCI-H460 = system: NCI-H460
# MDA-MB-231 = system: MDA-MB-231
# COLO 205 = system: COLO 205
# K562 = system: K562
# IGROV-1 = system: IGROV-1
# UACC-62 = system: UACC-62
# MOLT-4 = system: MOLT-4
# CCRF-CEM = system: CCRF-CEM
# HT-29 = system: HT-29
# EKVX = system: EKVX
# A549 = system: A549
# 786-0 = system: 786-0
# NCI-H522 = system: NCI-H522
# MCF7 = system: MCF7
# RPMI-8226 = system: RPMI-8226
# OVCAR-8 = system: OVCAR-8
# PC-3 = system: PC-3
# DU-145 = system: DU-145
# Hs-578T = system: Hs-578T
# ACHN = system: ACHN
# NCI/ADR-RES = system: NCI/ADR-RES
# SN12C = system: SN12C
# NCI-H226 = system: NCI-H226
# SK-MEL-2 = system: SK-MEL-2
# SW-620 = system: SW-620
# LOX IMVI = system: LOX IMVI
# UO-31 = system: UO-31
# SR = system: SR
# U-251 = system: U-251
# HOP-92 = system: HOP-92
# T47D = system: T47D
# OVCAR-3 = system: OVCAR-3
# SNB-19 = system: SNB-19
# A498 = system: A498
# SK-MEL-28 = system: SK-MEL-28
# NCI-H23 = system: NCI-H23
# RXF 393 = system: RXF 393
# BT-549 = system: BT-549
# UACC-257 = system: UACC-257
# MDA-MB-435 = system: MDA-MB-435
# OVCAR-5 = system: OVCAR-5
# TK-10 = system: TK-10
# HOP-62 = system: HOP-62
# SK-MEL-5 = system: SK-MEL-5
# OVCAR-4 = system: OVCAR-4
# SF-268 = system: SF-268
# SF-295 = system: SF-295
# M14 = system: M14
# MDA-N = system: MDA-N
smiles,measurement,setting,value
c1c[nH]c(C23C4C5C6C4C2C6C53)n1 (centres undefined),GI50,HL-60,> 100 µM (inactive)
same,GI50,SF-539,> 100 µM (inactive)
same,GI50,HCC 2998,> 100 µM (inactive)
same,GI50,SK-OV-3,> 100 µM (inactive)
same,GI50,SNB-75,> 100 µM (inactive)
same,GI50,KM12,> 100 µM (inactive)
same,GI50,CAKI-1,> 100 µM (inactive)
same,GI50,Malme-3M,> 100 µM (inactive)
same,GI50,HCT-15,> 100 µM
same,GI50,HCT-116,> 100 µM (inactive)
same,GI50,NCI-H460,> 100 µM (inactive)
same,GI50,MDA-MB-231,> 100 µM (inactive)
same,GI50,COLO 205,> 100 µM (inactive)
same,GI50,K562,> 100 µM (inactive)
same,GI50,IGROV-1,> 100 µM (inactive)
same,GI50,UACC-62,> 100 µM (inactive)
same,GI50,MOLT-4,> 100 µM (inactive)
same,GI50,CCRF-CEM,> 100 µM (inactive)
same,GI50,HT-29,> 100 µM (inactive)
same,GI50,EKVX,> 100 µM (inactive)
same,GI50,A549,> 100 µM (inactive)
same,GI50,786-0,> 100 µM (inactive)
same,GI50,NCI-H522,> 100 µM (inactive)
same,GI50,MCF7,> 100 µM (inactive)
same,GI50,RPMI-8226,> 100 µM (inactive)
same,GI50,OVCAR-8,> 100 µM (inactive)
same,GI50,PC-3,> 100 µM (inactive)
same,GI50,DU-145,> 100 µM (inactive)
same,GI50,Hs-578T,> 100 µM (inactive)
same,GI50,ACHN,> 100 µM (inactive)
same,GI50,NCI/ADR-RES,> 100 µM (inactive)
same,GI50,SN12C,> 100 µM (inactive)
same,GI50,NCI-H226,> 100 µM (inactive)
same,GI50,SK-MEL-2,> 100 µM (inactive)
same,GI50,SW-620,> 100 µM (inactive)
same,GI50,LOX IMVI,> 100 µM (inactive)
same,GI50,UO-31,> 100 µM (inactive)
same,GI50,SR,> 100 µM (inactive)
same,GI50,U-251,> 100 µM (inactive)
same,GI50,HOP-92,> 100 µM (inactive)
same,GI50,T47D,> 100 µM (inactive)
same,GI50,OVCAR-3,> 100 µM (inactive)
same,GI50,SNB-19,> 100 µM (inactive)
same,GI50,A498,> 100 µM (inactive)
same,GI50,SK-MEL-28,> 100 µM (inactive)
same,GI50,NCI-H23,> 100 µM (inactive)
same,GI50,RXF 393,> 100 µM (inactive)
same,GI50,BT-549,> 100 µM (inactive)
same,GI50,UACC-257,> 100 µM (inactive)
same,GI50,MDA-MB-435,> 100 µM (inactive)
same,GI50,OVCAR-5,> 100 µM (inactive)
same,GI50,TK-10,> 100 µM (inactive)
same,GI50,HOP-62,> 100 µM (inactive)
same,GI50,SK-MEL-5,> 100 µM (inactive)
same,GI50,OVCAR-4,30.6 µM (inactive)
same,GI50,SF-268,> 100 µM (inactive)
same,GI50,SF-295,> 100 µM (inactive)
same,GI50,M14,> 100 µM (inactive)
same,GI50,MDA-N,> 100 µM (inactive)
